Measured values published in the supplement of paper PMC11061612.

How the values were obtained:
Test in all cases: Bliss excess, mean over the matrix (fraction); higher = more synergy
[1] = tested on: A204 (Rhabdomyosarcoma)
Summary of the method: (§1)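 Cell lines in DMEM/F12 or RPMI with 10% FBS were plated in 1536-well plates, held 24 hours at 37°C, 5% CO2, then given two-drug dose matrices for 72 hours (DMSO typically 0.2%). Viability was read by CellTiter-Glo 2.0 luminescence and scaled as inhibition from 0 (vehicle wells) to 1 (blank wells). Combination Emax is the second-highest inhibition in the matrix; Bliss excess is observed combination effect minus expected EA + EB − EA·EB, EA and EB being single-agent effects.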

[2] = tested on: KYSE-220 (Esophageal Squamous Cell Carcinoma)
Summary of the method: as §1

[3] = tested on: JHU-022 (Oral Cavity Carcinoma)
Summary of the method: as §1

[4] = tested on: JVM-2 (B-Cell Non-Hodgkin's Lymphoma)
Summary of the method: as §1

[5] = tested on: Jurkat (T-Lymphoblastic Leukemia)
Summary of the method: as §1

[6] = tested on: EW-16 (Ewing's Sarcoma)
Summary of the method: as §1

[7] = tested on: KP-N-YN (Neuroblastoma)
Summary of the method: as §1

[8] = tested on: JIMT-1 (Breast Carcinoma)
Summary of the method: as §1

[9] = tested on: RH-41 (Rhabdomyosarcoma)
Summary of the method: as §1

[10] = tested on: LS-411N (Colorectal Carcinoma)
Summary of the method: as §1

[11] = tested on: GCT (Other Solid Carcinomas)
Summary of the method: as §1

[12] = tested on: EPLC-272H (Other Solid Carcinomas)
Summary of the method: as §1

[13] = tested on: LU-165 (Small Cell Lung Carcinoma)
Summary of the method: as §1

[14] = tested on: NB13 (Neuroblastoma)
Summary of the method: as §1

[15] = tested on: NCI-H2087 (Lung Adenocarcinoma)
Summary of the method: as §1

[16] = tested on: NCI-H2228 (Lung Adenocarcinoma)
Summary of the method: as §1

[17] = tested on: 5637 (Bladder Carcinoma)
Summary of the method: as §1

[18] = tested on: 22RV1 (Prostate Carcinoma)
Summary of the method: as §1

[19] = tested on: IM-9 (Non-Cancerous)
Summary of the method: as §1

[20] = tested on: JHH-2 (Hepatocellular Carcinoma)
Summary of the method: as §1

Compound: Cc1c2c(nn1C)CSCc1cc(n(C)n1)CSc1cc(c3ccccc3c1)OCCCc1c(C(=O)O)n(C)c3c-2c(Cl)ccc13 [AZD5991] + C[C@@H](Nc1cc(F)cc(F)c1)c1cc(C(=O)N(C)C)cc2c(=O)cc(N3CCOCC3)oc12 [AZD8186] (first compound max 1 µM, 7x7, partner max 3 µM)
- Bliss excess [1]: -0.0051
- Bliss excess [2]: -0.006
- Bliss excess [3]: -0.0211
- Bliss excess [4]: 0.0024
- Bliss excess [5]: -0.0077
- Bliss excess [6]: -0.0571
- Bliss excess [7]: -0.0498
- Bliss excess [8]: -0.0492
- Bliss excess [9]: -0.0114
- Bliss excess [10]: 0.0064
- Bliss excess [11]: -0.0351
- Bliss excess [12]: 0.0238
- Bliss excess [13]: -0.0238
- Bliss excess [14]: 0.0039
- Bliss excess [15]: -0.0168
- Bliss excess [16]: -0.0361
- Bliss excess [17]: -0.036
- Bliss excess [18]: -0.0029
- Bliss excess [19]: -0.0376
- Bliss excess [20]: -0.0261

Compound: COc1cccc(OCCCN)c1-c1cc(Nc2cnc(C#N)cn2)n[nH]1 [Prexasertib] + Cc1cc2ncnn2cc1Nc1ncc2c(n1)n(C1CCOCC1)c(=O)n2C [AZD7648] (first compound max 1 µM, 7x7, partner max 10 µM)
- Bliss excess [1]: -0.091
- Bliss excess [2]: -0.0308
- Bliss excess [3]: -0.0661
- Bliss excess [4]: 0.0171
- Bliss excess [5]: -0.0008
- Bliss excess [6]: 0.0156
- Bliss excess [7]: -0.0221
- Bliss excess [8]: -0.0205
- Bliss excess [9]: -0.0453
- Bliss excess [10]: -0.0082
- Bliss excess [11]: 0.0365
- Bliss excess [12]: -0.0481
- Bliss excess [13]: -0.0422
- Bliss excess [14]: -0.023
- Bliss excess [15]: 0.008
- Bliss excess [16]: -0.0487
- Bliss excess [17]: -0.0423
- Bliss excess [18]: -0.0316
- Bliss excess [19]: -0.014
- Bliss excess [20]: -0.0348

Compound: CC1(C)CCC(CN2CCN(c3ccc(C(=O)NS(=O)(=O)c4ccc(NCC5CCOCC5)c([N+](=O)[O-])c4)c(Oc4cnc5[nH]ccc5c4)c3)CC2)=C(c2ccc(Cl)cc2)C1 [Venetoclax] + CCN(CCO)CCCOc1ccc2c(Nc3cc(CC(=O)Nc4cccc(F)c4)[nH]n3)ncnc2c1 [AZD2811] (first compound max 1 µM, 7x7, partner max 1 µM)
- Bliss excess [1]: 0.0005
- Bliss excess [2]: 0.0335
- Bliss excess [3]: -0.0139
- Bliss excess [4]: 0.051
- Bliss excess [5]: 0.0202
- Bliss excess [6]: 0.0619
- Bliss excess [7]: 0.104
- Bliss excess [8]: -0.0232
- Bliss excess [9]: 0.0561
- Bliss excess [10]: -0.0284
- Bliss excess [11]: -0.004
- Bliss excess [12]: 0.0409
- Bliss excess [13]: -0.0665
- Bliss excess [14]: 0.0534
- Bliss excess [15]: -0.0281
- Bliss excess [16]: -0.039
- Bliss excess [17]: -0.0229
- Bliss excess [18]: -0.001
- Bliss excess [19]: 0.0275
- Bliss excess [20]: -0.038

Compound: Cc1c2c(nn1C)CSCc1cc(n(C)n1)CSc1cc(c3ccccc3c1)OCCCc1c(C(=O)O)n(C)c3c-2c(Cl)ccc13 [AZD5991] + C1CN(CCC1(C(=O)N[C@@H](CCO)C2=CC=C(C=C2)Cl)N)C3=NC=NC4=C3C=CN4 [Capivasertib] (first compound max 1 µM, 7x7, partner max 3 µM)
- Bliss excess [1]: -0.0305
- Bliss excess [2]: 0.0187
- Bliss excess [3]: -0.0273
- Bliss excess [4]: 0.0245
- Bliss excess [5]: 0.0115
- Bliss excess [6]: -0.0456
- Bliss excess [7]: -0.0382
- Bliss excess [8]: -0.0056
- Bliss excess [9]: -0.0334
- Bliss excess [10]: -0.0038
- Bliss excess [11]: -0.0219
- Bliss excess [12]: 0.0341
- Bliss excess [13]: 0.0034
- Bliss excess [14]: 0.0719
- Bliss excess [15]: -0.0295
- Bliss excess [16]: -0.0225
- Bliss excess [17]: -0.004
- Bliss excess [18]: 0.0404
- Bliss excess [19]: -0.0616
- Bliss excess [20]: 0.0621

Compound: CC1(C)CCC(CN2CCN(c3ccc(C(=O)NS(=O)(=O)c4ccc(NCC5CCOCC5)c([N+](=O)[O-])c4)c(Oc4cnc5[nH]ccc5c4)c3)CC2)=C(c2ccc(Cl)cc2)C1 [Venetoclax] + C[C@@H]1COCCN1C2=NC(=NC(=C2)C3(CC3)[S@](=N)(=O)C)C4=C5C=CNC5=NC=C4 [AZD6738] (first compound max 1 µM, 7x7, partner max 10 µM)
- Bliss excess [1]: -0.0355
- Bliss excess [2]: -0.0398
- Bliss excess [3]: -0.007
- Bliss excess [4]: -0.0035
- Bliss excess [5]: 0.0361
- Bliss excess [6]: -0.0607
- Bliss excess [7]: -0.0619
- Bliss excess [8]: -0.0643
- Bliss excess [9]: 0.0355
- Bliss excess [10]: -0.0311
- Bliss excess [11]: -0.112
- Bliss excess [12]: -0.0233
- Bliss excess [13]: -0.117
- Bliss excess [14]: 0.0633
- Bliss excess [15]: -0.0511
- Bliss excess [16]: -0.0361
- Bliss excess [17]: -0.048
- Bliss excess [18]: -0.0368
- Bliss excess [19]: 0.0201
- Bliss excess [20]: -0.019

Compound: Cc1c2c(nn1C)CSCc1cc(n(C)n1)CSc1cc(c3ccccc3c1)OCCCc1c(C(=O)O)n(C)c3c-2c(Cl)ccc13 [AZD5991] + CCN(CCO)CCCOc1ccc2c(Nc3cc(CC(=O)Nc4cccc(F)c4)[nH]n3)ncnc2c1 [AZD2811] (first compound max 1 µM, 7x7, partner max 1 µM)
- Bliss excess [1]: 0.0358
- Bliss excess [2]: 0.0088
- Bliss excess [3]: 0.0039
- Bliss excess [4]: 0.032
- Bliss excess [5]: 0.0119
- Bliss excess [6]: 0.117
- Bliss excess [7]: 0.0556
- Bliss excess [8]: 0.0203
- Bliss excess [9]: 0.0183
- Bliss excess [10]: 0.0206
- Bliss excess [11]: 0.0106
- Bliss excess [12]: 0.0705
- Bliss excess [13]: -0.025
- Bliss excess [14]: 0.131
- Bliss excess [15]: -0.0144
- Bliss excess [16]: 0.0161
- Bliss excess [17]: 0.0103
- Bliss excess [18]: -0.0004
- Bliss excess [19]: -0.0112
- Bliss excess [20]: -0.0213

Compound: NC1(C(=O)N[C@@H](CCO)c2ccc(Cl)cc2)CCN(c2ncnc3[nH]ccc23)CC1 [Capivasertib] + COc1nnc2ccc(N3CCC(c4ccc(OCCN5CCN(C)C(=O)[C@H]5C)cc4)CC3)nn12 [AZD5153] (first compound max 10 µM, 7x7, partner max 1 µM)
- Bliss excess [1]: 0.006
- Bliss excess [2]: -0.0248
- Bliss excess [3]: 0.0019
- Bliss excess [4]: -0.0764
- Bliss excess [5]: 0.0593
- Bliss excess [6]: 0.0283
- Bliss excess [7]: -0.0718
- Bliss excess [8]: 0.0698
- Bliss excess [9]: 0.0198
- Bliss excess [10]: 0.11
- Bliss excess [11]: 0.0049
- Bliss excess [12]: -0.0025
- Bliss excess [13]: -0.0351
- Bliss excess [14]: 0.0532
- Bliss excess [15]: 0.0179
- Bliss excess [16]: 0.036
- Bliss excess [17]: 0.0035
- Bliss excess [18]: 0.0032
- Bliss excess [19]: -0.0708
- Bliss excess [20]: 0.0064
